Laboratory results taken from patent publication US6737383B1, “Herbicidal oxadiazolidines” (priority 1999, dated 2004).

Experiments:
bedstraw = assay: Test B pre/postemergence bedstraw; assay type: in vivo, Galium aparine
How it was run: (§1)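 Herbicidal effect was estimated by eye on a ten-point control scale after plants spent twelve to sixteen days in a greenhouse following soil or foliar treatment. Foliar sprays targeted plants at one to four leaves; all doses were formulated in a non-phytotoxic solvent with surfactant.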

blackgrass = assay: Test B pre/postemergence blackgrass; assay type: in vivo, Alopecurus myosuroides
How it was run: as §1

giant foxtail = assay: Test B pre/postemergence giant foxtail; assay type: in vivo, Setaria faberii
How it was run: as §1

morningglory = assay: Test B pre/postemergence morningglory; assay type: in vivo, Ipomoea hederacea
How it was run: as §1

pigweed = assay: Test B pre/postemergence pigweed; assay type: in vivo, Amaranthus retroflexus
How it was run: as §1

rape = assay: Test B pre/postemergence rape; assay type: in vivo, Brassica napus
How it was run: as §1

soybean = assay: Test B pre/postemergence soybean; assay type: in vivo, Glycine max
How it was run: as §1

sugar beet = assay: Test B pre/postemergence sugar beet; assay type: in vivo, Beta vulgaris
How it was run: as §1

velvetleaf = assay: Test B pre/postemergence velvetleaf; assay type: in vivo, Abutilon theophrasti
How it was run: as §1

wheat = assay: Test B pre/postemergence wheat; assay type: in vivo, Triticum aestivum
How it was run: as §1

wild oat = assay: Test B pre/postemergence wild oat; assay type: in vivo, Avena fatua
How it was run: as §1

purple nutsedge = assay: Test B pre/postemergence purple nutsedge; assay type: in vivo, Cyperus rotundus
How it was run: as §1

rice = assay: Test B flood test rice; assay type: in vivo, Oryza sativa
How it was run: (§2)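 Each value is a visual injury score relative to controls, with 10 meaning complete control and 0 no effect. Evaluation took place twelve to sixteen days after the 2-leaf-stage plants were treated and kept in the greenhouse.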

smallflower flatsedge = assay: Test B flood test smallflower flatsedge; assay type: in vivo, Cyperus difformis
How it was run: as §2

duck salad = assay: Test B flood test duck salad; assay type: in vivo, Heteranthera limosa
How it was run: as §2

bamyardgrass = assay: Test B flood test barnyardgrass; assay type: in vivo, Echinochloa crus-galli
How it was run: as §2

[1] = Preemergence, Rate 62 g/ha, scale of 0 to 10 where 0 is no effect and 10 is complete control
[2] = Preemergence, Rate 250 g/ha, scale of 0 to 10 where 0 is no effect and 10 is complete control
[3] = Preemergence, Rate 500 g/ha, scale of 0 to 10 where 0 is no effect and 10 is complete control
[4] = Rate 62 g/ha, Postemergence, scale of 0 to 10 where 0 is no effect and 10 is complete control
[5] = Rate 125 g/ha, Postemergence, scale 0 to 10
[6] = Rate 125 g/ha, Preemergence, scale of 0 to 10 where 0 is no effect and 10 is complete control
[7] = Rate 500 g/ha, Postemergence, scale 0 to 10, 0 no effect, 10 complete control
[8] = Rate 62 g/ha, headed Pre-emergence (flood test species), scale 0 to 10 (0 no effect, 10 complete control)
[9] = Rate 125 g/ha, Pre-emergence, flood test species, scale 0 to 10 where 0 is no effect and 10 is complete control
[10] = Rate 250 g/ha, Pre-emergence, flood-test species, scale 0 to 10, 0 is no effect, 10 is complete control
[11] = Rate 500 g/ha, Pre-emergence, flood test species, scale 0 to 10 (0 no effect, 10 complete control)

CC(C)N(C(=O)n1oc(=O)n(CC(C)(C)C)c1=O)c1ccc(F)cc1 [Compound 246]
1: Sugarbeets plant response rating (sugar beet; [6])
9: Plant response rating (0 to 10; 0 is no effect, 10 is complete control), Bedstraw (bedstraw; Rate 250 g/ha, Postemergence) | Bedstraw plant response rating (bedstraw; [7]) | Giant foxtail plant response rating (giant foxtail; [6]) | Plant response rating (0 to 10; 0 is no effect, 10 is complete control), Morningglory (morningglory; Rate 250 g/ha, Postemergence) | Morningglory plant response rating (morningglory; [7])
8: Blackgrass plant response rating (blackgrass; [7]) | Giant foxtail plant response rating (giant foxtail; [1]) | Giant foxtail plant response rating (giant foxtail; [7]) | Plant response rating, Sugarbeets (sugar beet; [3]) | Plant response rating, Wild oats (wild oat; [3]) | Barnyardgrass plant response rating (bamyardgrass; [11])
10: Plant response rating, Blackgrass (blackgrass; [3]) | Giant foxtail plant response rating (giant foxtail; [2]) | Plant response rating, Giant foxtail (giant foxtail; [3]) | Rape plant response rating (rape; [2]) | Plant response rating, Rape (rape; [3])
2: Plant response rating, Bedstraw (bedstraw; [3]) | Blackgrass plant response rating (blackgrass; [5]) | Plant response rating (0 to 10; 0 is no effect, 10 is complete control), Redroot pigweed (pigweed; Rate 250 g/ha, Postemergence) | Rape plant response rating (rape; [6]) | Plant response rating, Soybean (soybean; [3]) | Sugarbeets plant response rating (sugar beet; [2]) | Velvetleaf plant response rating (velvetleaf; [6]) | Wild oats plant response rating (wild oat; [1])
7: Bedstraw plant response rating (bedstraw; [4]) | Bedstraw plant response rating (bedstraw; [5])
5: Blackgrass plant response rating (blackgrass; [6]) | Plant response rating (0 to 10; 0 is no effect, 10 is complete control), Giant foxtail (giant foxtail; Rate 250 g/ha, Postemergence) | Plant response rating, Velvetleaf (velvetleaf; [3]) | Plant response rating, Wheat (wheat; [3])
3: Plant response rating, Redroot pigweed (pigweed; [3]) | Redroot pigweed plant response rating (pigweed; [7]) | Velvetleaf plant response rating (velvetleaf; [7]) | Wild oats plant response rating (wild oat; [6]) | Nutsedge plant response rating (purple nutsedge; [7])
6: Blackgrass plant response rating (blackgrass; [2]) | Plant response rating (0 to 10; 0 is no effect, 10 is complete control), Blackgrass (blackgrass; Rate 250 g/ha, Postemergence) | Wild oats plant response rating (wild oat; [2])
4: Soybean plant response rating (soybean; [7]) | Velvetleaf plant response rating (velvetleaf; [2]) | Wheat plant response rating (wheat; [7])
0: Bedstraw plant response rating (bedstraw; [1]) | Bedstraw plant response rating (bedstraw; [2]) | Bedstraw plant response rating (bedstraw; [6]) | Blackgrass plant response rating (blackgrass; [4]) | Morningglory plant response rating (morningglory; [1]) | Morningglory plant response rating (morningglory; [2]) | Plant response rating, Morningglory (morningglory; [3]) | Morningglory plant response rating (morningglory; [6]) | Redroot pigweed plant response rating (pigweed; [1]) | Redroot pigweed plant response rating (pigweed; [2]) | Redroot pigweed plant response rating (pigweed; [6]) | Rape plant response rating (rape; [1]) | Plant response rating (0 to 10; 0 is no effect, 10 is complete control), Rape (rape; Rate 250 g/ha, Postemergence) | Rape plant response rating (rape; [7]) | Soybean plant response rating (soybean; [1]) | Soybean plant response rating (soybean; [2]) | Soybean plant response rating (soybean; [6]) | Sugarbeets plant response rating (sugar beet; [1]) | Sugarbeets plant response rating (sugar beet; [7]) | Velvetleaf plant response rating (velvetleaf; [1]) | Wheat plant response rating (wheat; [1]) | Wheat plant response rating (wheat; [2]) | Wheat plant response rating (wheat; [6]) | Wild oats plant response rating (wild oat; [7]) | Nutsedge plant response rating (purple nutsedge; [2]) | Plant response rating, Nutsedge (purple nutsedge; [3]) | Plant response rating (0 to 10; 0 is no effect, 10 is complete control), Nutsedge (purple nutsedge; Rate 250 g/ha, Postemergence) | Rice plant response rating (rice; [8]) | Rice plant response rating (rice; [9]) | Rice plant response rating (rice; [10]) | Rice plant response rating (rice; [11]) | S. Flatsedge plant response rating (smallflower flatsedge; [8]) | S. Flatsedge plant response rating (smallflower flatsedge; [9]) | S. Flatsedge plant response rating (smallflower flatsedge; [10]) | S. Flatsedge plant response rating (smallflower flatsedge; [11]) | Ducksalad plant response rating (duck salad; [8]) | Ducksalad plant response rating (duck salad; [9]) | Ducksalad plant response rating (duck salad; [10]) | Ducksalad plant response rating (duck salad; [11]) | Barnyardgrass plant response rating (bamyardgrass; [8]) | Barnyardgrass plant response rating (bamyardgrass; [9]) | Barnyardgrass plant response rating (bamyardgrass; [10])
